# Where two headings read alike, the source gives them in different places.
# Legend:
# [1] = molecular target: T1, human full-length glucocorticoid receptor (Homo sapiens, UniProt P04150); experiment: Glucocorticoid Receptor Binding Assay (II), fluorescence polarization competitor kit (Fluormone GS1); conditions: cell lysate with recombinant human full-length GR, 1 nM Fluormone GS1, FP
# T1 construct: a cell lysate containing recombinantly expressed human full-length glucocorticoid receptor; purchased PanVera Co., Madison, Wis; P2816
# T1 sequence (P04150 1-777): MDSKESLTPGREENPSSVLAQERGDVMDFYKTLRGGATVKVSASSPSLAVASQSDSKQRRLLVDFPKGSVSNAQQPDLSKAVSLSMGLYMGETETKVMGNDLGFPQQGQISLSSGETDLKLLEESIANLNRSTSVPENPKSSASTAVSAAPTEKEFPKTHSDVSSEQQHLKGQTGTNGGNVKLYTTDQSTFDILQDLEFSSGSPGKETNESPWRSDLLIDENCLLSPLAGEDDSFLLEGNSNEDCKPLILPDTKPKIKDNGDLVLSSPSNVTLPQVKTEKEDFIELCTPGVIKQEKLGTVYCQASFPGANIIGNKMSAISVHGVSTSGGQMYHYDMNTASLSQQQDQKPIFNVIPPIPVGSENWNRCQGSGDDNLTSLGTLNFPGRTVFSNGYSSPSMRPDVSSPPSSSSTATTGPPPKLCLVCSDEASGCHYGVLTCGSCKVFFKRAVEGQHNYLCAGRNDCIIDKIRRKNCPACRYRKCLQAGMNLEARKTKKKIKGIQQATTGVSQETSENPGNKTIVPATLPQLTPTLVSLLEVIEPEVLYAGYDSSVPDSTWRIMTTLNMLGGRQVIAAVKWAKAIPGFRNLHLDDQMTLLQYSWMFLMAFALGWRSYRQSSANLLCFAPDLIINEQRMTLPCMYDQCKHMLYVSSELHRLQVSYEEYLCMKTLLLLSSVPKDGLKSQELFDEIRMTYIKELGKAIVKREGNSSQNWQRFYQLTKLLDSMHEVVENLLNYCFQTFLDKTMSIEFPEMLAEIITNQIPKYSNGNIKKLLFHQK
# Procedure: In order to measure the binding of compounds on the glucocorticoid receptor a commercially available kit was used (Glucocorticoid receptor competitor assay kit, PanVera Co., Madison, Wis., P2816). Briefly, a cell lysate containing recombinantly expressed human full-length glucocorticoid receptor was mixed with a fluorescently labeled glucocorticoid (1 nM Fluormone GS1) in the presence or absence of test compound. After one hour at room temperature, the fluorescence polarization (FP) of the samples were measured.
# [2] = tested on: AP-1 induced transcriptional activity; experiment: Cellular Transrepressional Assay (AP-1 luciferase reporter in A549 cells, PMA-activated); format: cell-based; conditions: A549 cells with 7x AP-1 luciferase reporter, 10 ng/ml PMA, read-out: AP-1 (EC50, nM) (Cellular Transrepression Assay)
# Procedure, shortened: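 Test molecules spanning 0.1 nM to 40 μM were co-incubated 7 h with 10 ng/ml PMA in A549 cells stably carrying a 7× AP-1-driven luciferase plasmid. Repression, as % reduction of PMA-alone luminescence measured 10 min after reagent addition, was curve-fitted to give EC50s.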
# [3] = molecular target: T2, human glucocorticoid receptor (Homo sapiens, UniProt P04150); experiment: Glucocorticoid Receptor Binding Assay (I), fluorescence polarization competitor kit (Fluormone GS Red); conditions: purified human recombinant full-length GR 2 nM, 1 nM Fluormone GS Red, FP; read-out: GR (Ki, nM) (GR Binding Assay (I))
# T2 construct: purified human recombinant full-length glucocorticoid receptor (2 nM); purchased Invitrogen Part #2893
# T2 sequence (P04150 1-777): T1 sequence (P04150 1-777)
# Procedure: Briefly, purified human recombinant full-length glucocorticoid receptor (2 nM) was mixed with fluorescently labeled glucocorticoid (1 nM Fluormone GS Red) in the presence or absence of test compound. After two hour incubation at room temperature in the dark, the fluorescence polarization (FP) of the samples was measured. […] Test compounds were analyzed in the concentration range from 8.5E-05 μM to 5 μM.
Ki [1] [nM],"EC50 ([2]; Homo sapiens, A549, 7 h) [nM]",EC50 ([2]; 7 hours) [nM],Ki [3] [nM],Compound
496,> 10000,–,–,"CCOC(=O)c1cccc(-n2ncc3cc([C@H](c4ccccc4)C(C)(C)C(=O)Nc4nncs4)ccc32)c1 (stereo in doubt) [Example 95, ethyl 3-(5-(3-(1,3,4-thiadiazol-2-ylamino)-2,2-dimethyl-3-oxo-1-phenylpropyl)-1H-indazol-1-yl)benzoate]"
2.8,12,–,–,"CC(C)(C(=O)Nc1nccs1)C1(c2ccc3c(cnn3-c3ccc(F)cc3)c2)CCCCC1 [Example 102, 2-(1-(1-(4-Fluorophenyl)-1H-indazol-5-yl)cyclohexyl)-2-methyl-N-(thiazol-2-yl)propanamide]"
1.7,2,–,–,"CCCC(C(=O)Nc1nncs1)C(c1ccccc1)c1ccc2c(cnn2-c2ccc(F)cc2)c1 (stereo not drawn) [Example 143, 2-((1-(4-fluorophenyl)-1H-indazol-5-yl)(phenyl)methyl)-N-(1,3,4-thiadiazol-2-yl)pentanamide]"
2.6,15,–,–,"CC(=O)OCC(C)(C(=O)Nc1nncs1)C(c1ccccc1)c1ccc2c(cnn2-c2ccc(F)cc2)c1 (stereo not drawn) [Example 154, 3-(1,3,4-Thiadiazol-2-ylamino)-2-((1-(4-fluorophenyl)-1H-indazol-5-yl)(phenyl)methyl)-2-methyl-3-oxopropyl acetate]"
1.9,223,–,–,"CC(C)(C(=O)Nc1nccs1)C(Cc1ccccc1)c1ccc2c(cnn2-c2ccc(F)cc2)c1 (stereo not drawn) [Example 138, 3-(1-(4-Fluorophenyl)-1H-indazol-5-yl)-2,2-dimethyl-4-phenyl-N-(thiazol-2-yl)butanamide]"
3.8,> 10000,–,–,"Cc1ccc(CC(c2ccc3c(cnn3-c3ccc(F)cc3)c2)C(C)(C)C(=O)Nc2nncs2)cc1 (stereo not drawn) [Example 127, 3-(1-(4-fluorophenyl)-1H-indazol-5-yl)-2,2-dimethyl-N-(1,3,4-thiadiazol-2-yl)-4-p-tolylbutanamide]"
9.8,2500,–,–,"O=C(Nc1nncs1)C(c1ccccc1)C(c1ccccc1)c1ccc2[nH]ncc2c1 (single isomer, unassigned) [152-diast A, 3-(1H-Indazol-5-yl)-2,3-diphenyl-N-(1,3,4-thiadiazol-2-yl)propanamide]"
3.1,23,–,–,"COc1cc(F)ccc1-n1ncc2cc([C@H](c3ccccc3)C(C)(C)C(=O)Nc3nncs3)ccc21 [Example 96, (3S)-3-(1-(4-fluoro-2-methoxyphenyl)-1H-indazol-5-yl)-2,2-dimethyl-3-phenyl-N-(1,3,4-thiadiazol-2-yl)propanamide]"
153,> 10000,–,–,"CC(C)(C(=O)NC1CCNCC1)C(Cc1ccccc1)c1ccc2c(cnn2-c2ccc(F)cc2)c1 (stereo not drawn) [Example 133, 3-(1-(4-fluorophenyl)-1H-indazol-5-yl)-2,2-dimethyl-4-phenyl-N-(piperidin-4-yl)butanamide]"
2.6,52,–,–,"C=CCC(c1ccc2c(cnn2-c2ccc(F)cc2)c1)C(C)(C)C(=O)Nc1nncs1 (stereo not drawn) [Example 45, 3-(1-(4-fluorophenyl)-1H-indazol-5-yl)-2,2-dimethyl-N-(1,3,4-thiadazol-2-yl)hex-5-enamide]"
2.3,2.6,–,–,"Cc1cccc(C(c2ccc3c(cnn3-c3ccc(F)cc3)c2)C(C)(C)C(=O)Nc2nccs2)c1 (stereo not drawn) [Example 41, 3-(1-(4-fluorophenyl)-1H-indazol-5-yl)-2,2-dimethyl-N-(thiazol-2-yl)-3-m-tolylpropanamide]"
1.6,> 10000,–,–,CC(C)c1cc2c(cnn2-c2ccc(F)cc2)cc1CC(C)(C)C(=O)Nc1nncs1 [Example 104]
11,> 10000,–,–,"CC(C)(CC(=O)Nc1nccs1)c1ccc2c(cnn2-c2ccc(F)cc2)c1 [Example 114, 3-(1-(4-Fluorophenyl)-1H-indazol-5-yl)-3-methyl-N-(thiazol-2-yl)butanamide]"
283,–,1740,–,"CC(C(=O)Nc1nncs1)C(c1ccccc1)c1ccc2[nH]ncc2c1 (single isomer, unassigned) [151-diast B, 3-(1H-Indazol-5-yl)-2-methyl-3-phenyl-N-(1,3,4-thiadiazol-2-yl)propanamide]"
0.68,673,–,–,"CC(C)(C(=O)NC1CC1)C(Cc1ccccc1)c1ccc2c(cnn2-c2ccc(F)cc2)c1 (stereo not drawn) [Example 128, N-cyclopropyl-3-(1-(4-fluorophenyl)-1H-indazol-5-yl)-2,2-dimethyl-4-phenylbutanamide]"
634,–,–,–,"CC(C)(C(=O)Nc1nncs1)[C@@H](c1ccccc1)c1ccc2c(cnn2-c2ccc(F)cc2C(=O)O)c1 [Example 157, 2-(5-((S)-3-(1,3,4-Thiadiazol-2-ylamino)-2,2-dimethyl-3-oxo-1-phenylpropyl)-1H-indazol-1-yl)-5-fluorobenzoic acid]"
1.9,13,–,–,"CC(C)(C(=O)Nc1nncs1)C(c1ccc(F)cc1)c1ccc2c(cnn2-c2ccc(F)cc2)c1 (stereo not drawn) [Example 53, 3-(4-fluorophenyl)-3-(1-(4-fluorophenyl)-1H-indazol-5-yl)-2,2-dimethyl-N-(1,3,4-thiadiazol-2-yl)propanamide]"
1.1,4.2,–,–,"Cc1ccccc1C(c1ccc2c(cnn2-c2ccc(F)cc2)c1)C(C)(C)C(=O)Nc1nncs1 (stereo not drawn) [Example 49, 3-(1-(4-fluorophenyl)-1H-indazol-5-yl)-2,2-dimethyl-N-(1,3,4-thiadiazol-2-yl)-3-o-tolylpropanamide]"
36,1200,–,–,"COc1cccc(-n2ncc3cc(C(c4ccccc4)C(C)(C)C(=O)Nc4nncs4)ccc32)c1 (stereo not drawn) [Example 94, 3-(1-(3-methoxyphenyl)-1H-indazol-5-yl)-2,2-dimethyl-3-phenyl-N-(1,3,4-thiadiazol-2-yl)propanamide]"
6.1,> 10000,–,–,"CC(C)(C(=O)NC1CCCC1)C(Cc1ccccc1)c1ccc2c(cnn2-c2ccc(F)cc2)c1 (single isomer, unassigned) [Example 130, N-cyclopentyl-3-(1-(4-fluorophenyl)-1H-indazol-5-yl)-2,2-dimethyl-4-phenylbutanamide]"
2.4,–,45,–,"O=C(Nc1nncs1)C(c1ccccc1)C(c1ccccc1)c1ccc2c(cnn2-c2ccc(F)cc2)c1 (single isomer, unassigned) [Example 145-isomerD, 3-(1-(4-fluorophenyl)-1H-indazol-5-yl)-2,3-diphenyl-N-(1,3,4-thiadiazol-2-yl)propanamide]"
0.64,–,40,–,"CC(C)(C(=O)NC1CCCC1O)C(Cc1ccccc1)c1ccc2c(cnn2-c2ccc(F)cc2)c1 (single isomer, unassigned) [Example 124-isomerD]"
8.3,1730,–,–,"CC(C)(C(=O)NC1CCCC1O)C(C)(C)c1ccc2c(cnn2-c2ccc(F)cc2)c1 (stereo not drawn) [Example 121, 3-(1-(4-fluorophenyl)-1H-indazol-5-yl)-N-(2-hydroxycyclopentyl)-2,2,3-trimethylbutanamide]"
1.3,4,–,–,"CC(C)=CC(c1ccc2c(cnn2-c2ccc(F)cc2)c1)C(C)(C)C(=O)Nc1nncs1 (stereo not drawn) [Example 56, 3-(1-(4-fluorophenyl)-1H-indazol-5-yl)-2,2,5-trimethyl-N-(1,3,4-thiadiazol-2-yl)hex-4-enamide]"
–,6150,–,9,CC(C)n1cc2cc(C(c3ccccc3)C(C)(C)C(=O)Nc3nccs3)ccc2n1 (stereo not drawn) [Example 62]
–,–,34,15,"O=C(Nc1nccs1)C1CC1(c1ccccc1)c1ccc2c(cnn2-c2ccc(F)cc2)c1 (stereo not drawn) [Example 98, Trans-2-(1-(4-fluorophenyl)-1H-indazol-5-yl)-2-phenyl-N-(thiazol-2-yl)cyclopropanecarboxamide]"
